US20240116909A1, “NOVEL COMPOUNDS USEFUL AS STING AGONISTS AND USES THEREOF” (priority 2021, published 2024)

target: human STING WT (Homo sapiens (Human), UniProt Q86WV6); assay: Human STING WT binding assay (Cisbio HTRF); conditions: human STING WT protein 6His-tagged, 3 hours at RT, read-out: hSTING WT binding IC50
Description: Cisbio Bioassays' human STING WT binding assay (#64BDSTGPEG & 64BDSTGPEH, Cisbio) is for quantitative measurement of human STING WT ligand using HTRF® technology.
Negative control: Dispense 5 μL of diluent into each negative control well. Standard: Dispense 5 μL of each Human STING WT Standard 2′3′-cGAMP (Std 0-Std 7) into each standard well. Compound: Dispense 5 μL of compound into each compound well.
Negative control: Add 5 μL of detection buffer to all wells. Other wells: Add 5 μL of human STING WT protein 6His-tagged protein to all wells.
Add 10 μL of premixed STING WT ligand d2 reagent and 6His Tb antibody working solution to all wells.
Seal the plate and incubate 3 hours at RT or at Over Night if necessary.
Remove the plate sealer and read on an HTRF® compatible reader (PerkinElmer, USA). Results were analyzed with a two-wavelength signal ratio: intensity (665 nm)/intensity (620 nm).
Fit the data in GraphPad to obtain IC50 values using equation (2)
Y=Bottom+(Top−Bottom)/(1+10^((Log IC50−X)*Hill Slope)) Equation (2): […]
Y is HTRF Ratio and X is compound concentration.

human STING WT, sequence (Q86WV6 whole entry): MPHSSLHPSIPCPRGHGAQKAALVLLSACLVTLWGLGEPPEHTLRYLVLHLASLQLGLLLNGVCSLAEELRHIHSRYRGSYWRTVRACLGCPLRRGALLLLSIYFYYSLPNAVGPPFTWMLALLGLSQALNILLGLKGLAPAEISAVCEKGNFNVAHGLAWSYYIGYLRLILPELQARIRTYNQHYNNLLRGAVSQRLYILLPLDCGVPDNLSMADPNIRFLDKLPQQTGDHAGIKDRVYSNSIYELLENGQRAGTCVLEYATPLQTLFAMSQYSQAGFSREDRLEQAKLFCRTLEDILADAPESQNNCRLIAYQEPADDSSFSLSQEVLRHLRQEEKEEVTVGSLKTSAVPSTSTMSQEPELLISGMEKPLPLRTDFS

Point of comparison: COc1cc2c(cc1OCCCOc1cc3cc(C(=O)NCCC(=O)O)sc3cc1OC)CN(C(=O)CCC(=O)O)C2 [Example 18, 4-(5-(3-((2-((2-carboxyethyl)carbamoyl)-6-methoxybenzo[b]thiophen-5-yl)oxy)propoxy)-6-methoxyisoindolin-2-yl)-4-oxobutanoic Acid], IC50 4.59 nM. Against it:
- COc1cc2sc(C(=O)[C@H]3C[C@@H]3C(=O)O)cc2cc1OCCCOc1c(OC)cc2c(c1F)CN(C(=O)CCC(=O)O)C2 (relative stereo) [Example 21, trans-2-(5-(3-((2-(3-carboxypropanoyl)-4-fluoro-6-methoxyisoindolin-5-yl)oxy)propoxy)-6-methoxybenzo[b]thiophene-2-carbonyl)cyclopropane-1-carboxylic Acid] — 35-fold higher, 159 nM
- COc1cc2c(cc1OCCCOc1cc3cc(C(=O)CCC(=O)O)sc3cc1OC)CN(C(=O)CCC(=O)O)C2 [Example 1, 4-(5-(3-((2-(3-carboxypropanoyl)-6-methoxybenzo[b]thiophen-5-yl)oxy)propoxy)-6-methoxyisoindolin-2-yl)-4-oxobutanoic Acid] — 76-fold lower, 0.06 nM
- COc1cc2c(c(Cl)c1OCCCOc1c(OC)cc3sc(C(=O)CCC(=O)O)cc3c1F)CN(C(=O)CCC(=O)O)C2 [Example 2, 4-(5-(3-((2-(3-carboxypropanoyl)-4-chloro-6-methoxyisoindolin-5-yl)oxy)propoxy)-4-fluoro-6-methoxybenzo[b]thiophen-2-yl)-4-oxobutanoic Acid] — 2.5-fold higher, 11.4 nM
- COc1cc2c(c(F)c1OCCCOc1c(OC)cc3sc(C(=O)CCC(=O)O)cc3c1Cl)CN(C(=O)CCC(=O)O)C2 [Example 3, 4-(5-(3-((2-(3-carboxypropanoyl)-4-chloro-6-methoxybenzo[b]thiophen-5-yl)oxy)propoxy)-4-fluoro-6-methoxyisoindolin-2-yl)-4-oxobutanoic Acid] — 1.8-fold higher, 8.4 nM
- COc1cc2c(c(F)c1OCCCOc1c(OC)cc3sc(C(=O)CCC(=O)O)cc3c1F)CN(C(=O)CCC(=O)O)C2 [Example 4, 4-(5-(3-((2-(3-carboxypropanoyl)-4-fluoro-6-methoxybenzo[b]thiophen-5-yl)oxy)propoxy)-4-fluoro-6-methoxyisoindolin-2-yl)-4-oxobutanoic Acid] — 26-fold lower, 0.18 nM
- COc1cc2c(cc1OCCCOc1cc3cc(C(=O)C[C@H](C)C(=O)O)sc3cc1OC)CN(C(=O)C[C@H](C)C(=O)O)C2 [Example 5, Sodium (S)-4-(5-(3-((2-((S)-3-carboxylatobutanoyl)-6-methoxybenzo[b]thiophen-5-yl)oxy)propoxy)-6-methoxyisoindolin-2-yl)-2-methyl-4-oxobutanoate] — 14-fold lower, 0.32 nM
- COc1cc2c(cc1OCCCOc1c(OC)cc3sc(C(=O)C[C@H](C)C(=O)O)cc3c1F)CN(C(=O)C[C@H](C)C(=O)O)C2 [Example 6, Sodium (S)-4-(5-(3-((2-((S)-3-carboxylatobutanoyl)-4-fluoro-6-methoxybenzo[b]thiophen-5-yl)oxy)propoxy)-6-methoxyisoindolin-2-yl)-2-methyl-4-oxobutanoate] — 13-fold lower, 0.36 nM
- COc1cc2c(cc1OCCCOc1nc3cc(C(=O)CCC(=O)O)sc3cc1OC)CN(C(=O)CCC(=O)O)C2 [Example 8, Sodium 4-(5-(3-((2-(3-carboxylatopropanoyl)-6-methoxyisoindolin-5-yl)oxy)propoxy)-6-methoxythieno[3,2-b]pyridin-2-yl)-4-oxobutanoate] — 7.1-fold lower, 0.65 nM
- COc1cc2c(cc1OCCCOc1cc3cc(C(=O)CCC(=O)O)sc3cc1Br)CN(C(=O)CCC(=O)O)C2 [Example 9, 4-(5-(3-((6-bromo-2-(3-carboxypropanoyl)benzo[b]thiophen-5-yl)oxy)propoxy)-6-methoxyisoindolin-2-yl)-4-oxobutanoic Acid] — 2.1-fold lower, 2.23 nM
- COc1cc2sc(C(=O)CCC(=O)O)cc2cc1OCCCOc1c(OC)cc2c(c1F)CN(C(=O)CCC(=O)O)C2 [Example 10, 4-(5-(3-((2-(3-carboxypropanoyl)-4-fluoro-6-methoxyisoindolin-5-yl)oxy)propoxy)-6-methoxybenzo[b]thiophen-2-yl)-4-oxobutanoic Acid] — 16-fold lower, 0.28 nM
- COc1cc2c(nc1OCCCOc1nc3cc(C(=O)CCC(=O)O)sc3cc1OC)CN(C(=O)CCC(=O)O)C2 [Example 11, 4-(5-(3-((6-(3-carboxypropanoyl)-3-methoxy-6,7-dihydro-5H-pyrrolo[3,4-b]pyridin-2-yl)oxy)propoxy)-6-methoxythieno[3,2-b]pyridin-2-yl)-4-oxobutanoic Acid] — 1.8-fold lower, 2.54 nM
- COc1cc2sc(C(=O)CCC(=O)O)cc2cc1OCCCOc1c(OC)cc2c(c1Cl)CN(C(=O)CCC(=O)O)C2 [Example 14, 4-(5-(3-((2-(3-carboxypropanoyl)-4-chloro-6-methoxyisoindolin-5-yl)oxy)propoxy)-6-methoxybenzo[b]thiophen-2-yl)-4-oxobutanoic Acid] — 10-fold higher, 46.6 nM
- COc1cc2c(cc1OCCCOc1cc3sc(C(=O)CCC(=O)O)cc3nc1OC)CN(C(=O)CCC(=O)O)C2 [Example 15, 4-(5-(3-((2-(3-carboxypropanoyl)-5-methoxythieno[3,2-b]pyridin-6-yl)oxy)propoxy)-6-methoxyisoindolin-2-yl)-4-oxobutanoic Acid] — 20-fold higher, 92.6 nM
- C=C(COc1c(OC)cc2c(c1Cl)CN(C(=O)CCC(=O)O)C2)COc1c(OC)cc2sc(C(=O)CCC(=O)O)cc2c1F [Example 16, 4-(5-((2-(((2-(3-carboxypropanoyl)-4-chloro-6-methoxyisoindolin-5-yl)oxy)methyl)allyl)oxy)-4-fluoro-6-methoxybenzo[b]thiophen-2-yl)-4-oxobutanoic Acid] — higher, > 150 nM
- COc1cc2c(c(F)c1OCCCOc1c(OC)cc3sc(C(=O)C[C@H](C)C(=O)O)cc3c1F)CN(C(=O)C[C@H](C)C(=O)O)C2 [Example 17, (S)-4-(5-(3-((2-((S)-3-carboxybutanoyl)-4-fluoro-6-methoxybenzo[b]thiophen-5-yl)oxy)propoxy)-4-fluoro-6-methoxyisoindolin-2-yl)-2-methyl-4-oxobutanoic Acid] — 24-fold lower, 0.19 nM
- C=C(COc1cc2c(cc1OC)CN(C(=O)CCC(=O)O)C2)COc1cc2cc(C(=O)CCC(=O)O)sc2cc1OC [Example 19, 4-(5-((2-(((2-(3-carboxypropanoyl)-6-methoxybenzo[b]thiophen-5-yl)oxy)methyl)allyl)oxy)-6-methoxyisoindolin-2-yl)-4-oxobutanoic Acid] — 12-fold higher, 54.6 nM
- COc1cc2c(cc1OCCCOc1c(OC)cc3sc(C(=O)CCC(=O)O)cc3c1F)CN(C(=O)CCC(=O)O)C2 [Example 20, 4-(5-(3-((2-(3-carboxypropanoyl)-4-fluoro-6-methoxybenzo[b]thiophen-5-yl)oxy)propoxy)-6-methoxyisoindolin-2-yl)-4-oxobutanoic Acid] — 24-fold lower, 0.19 nM
